Here are results for 4 compounds from ChEMBL document CHEMBL6153057, “Novel Imidazotriazine Derivatives as IL-17 Modulators for Treating Inflammatory and Autoimmune Disorders” (ACS Med Chem Lett, 2025).

SMILES strings stand for the structures. pIC50: −log10 of the molar value.

This experiment is described as follows: Antiinflammatory activity in human HDF cells assessed as inhibition of IL-17A/TNF-alpha-stimulated IL-6 release preincubated for 5 hrs followed by IL-17A/TNF-alpha stimulation and measured after 18 to 20 hrs by homogenous time-resolved FRET based assay. The experiment is classed as functional, cell-based.
Regarding `[2H]C([2H])([2H])O[C@@H]1CCN(C(=O)[C@@H]2CCC(F)(F)CO2)[C@@H](c2cnn3cc([C@@H](NC(=O)c4ccnn4C)C4CCC(F)(F)CC4)nc3n2)C1`, the pIC50 is 7.40.

On to `[2H]C([2H])([2H])O[C@@H]1CCN(C(=O)[C@@H]2CCC(F)(F)CO2)[C@H](c2cnn3cc([C@@H](NC(=O)c4ccnn4C)C4CCC(F)(F)CC4)nc3n2)C1`, for which the pIC50 was 8.40.

As for `CO[C@@H]1CCN(C(=O)[C@@H]2CCC(F)(F)CO2)[C@H](c2cnn3cc([C@@H](NC(=O)c4ccnn4C)C4CCC(F)(F)CC4)nc3n2)C1`, the pIC50 is 8.50.

As for `CO[C@@H]1CCN(C(=O)[C@@H]2CCC(F)(F)CO2)[C@@H](c2cnn3cc([C@@H](NC(=O)c4ccnn4C)C4CCC(F)(F)CC4)nc3n2)C1`, the negative logarithm of the IC50 (pIC50) is 7.40.

The pIC50 is the IC50 on a negative log10 scale, so that one unit is a factor of ten.
